The subject of assay [1] is TNF-α release by cultured human cortical microglia. The assay is described as follows: TNF-α release (ELISA) from Aβ1-40-stimulated human microglia. The class given is cell-based. Here is the method:
Cultures of human cortical or hippocampal astrocytes and microglia were prepared using a modification of the procedure described for cortical neurons. Cortical tissue from fetuses of 16 to 20 weeks of gestation was washed 3 times in Ca^2+ /Mg^2+ free Hanks balanced salt solution (CMF HBSS) and then dissociated by repeated pipetting. The solution was brought to a final volume of 80 ml CMF HBSS for approximately 10 ml of tissue. DNase (Sigma) was added to a final concentration of 0.05 mg/ml. 20 ml of the solution was passed through one 100 μm nylon cell strained (Falcon). The cells were then centrifuged for 5 minutes at 200×G in an IEC Clinical Centrifuge and resuspended in a trypsin/EDTA solution (0.05% trypsin+0.53 mM EDTA in HBSS; Gibco) and incubated for 20 minutes at 37°C. (10 ml of trypsin was added per 2-3 ml of tissue). The trypsin was then inactivated by adding (MEM/FBS): Modified Eagle's Medium (MEM) containing 1% glucose, 1 mM sodium pyruvate, 1 mM glutamine, and supplemented with 10% fetal bovine serum (JRH). After adding a final concentration of 0.05 mg/ml DNase the cells were resuspended and then pelleted by centrifugation and resuspended in MEM/FBS. 1.6×10^8 cells were seeded in a T-150 tissue culture flask coated with polyethyleneimine (PEI). (10% PEI (Sigma) was diluted 1:10 in H2 O, filtered through a […] unit and then diluted into 150 mM sodium borate pH 8.5 at 1:100. The flasks were coated overnight at room temperature, washed two times in PBS and coated with 20 ml/flask of MEM/FBS at 37° C. for at least one hour prior to plating cells.) Cultures were maintained in a H2 O-saturated incubator with an atmosphere of 95% air/5% CO2 at 37° C. The culture medium was changed one and four days after plating and the cultures were then left undisturbed for at least one week. After approximately two weeks in vitro, the flasks were gently shaken and floating microglia were collected and centrifuged for 5 minutes at 200×G in an IEC Clinical Centrifuge. The microglia were reseeded in 96 well tissue culture plates at a density of 5,000-40,000 cells/well in 125 μl in MEM/FBS. Astrocyte cultures were prepared by multiple passaging of the established mixed brain cell cultures. Each T-150 was incubated for 3-4 minutes at 37°C. with a trypsin/EDTA solution (see above). The trypsin was then inactivated by adding MEM/FBS. The cells were triturated and then pelleted by centrifugation and resuspended in MEM/FBS. The cells from one T-150 were seeded at a 1:30 to 1:5 dilution in T-150's not coated. Just prior to confluency the cells were repassaged by trypsinization as described above. This process was repeated until the cultures were >98% pure astrocytes.
Cultured microglial cells were treated with 50 μM of Aβ1-40 or vehicle only (Control). The levels of IL-1β, IL-6, and TNF-α released into the culture medium were determined by ELISA assay (R&D Systems) according to manufacturer's instructions.
The effect of two benzenesulfonamide inhibitors of PLA2 (European Patent Application 468 054) were examined on the activation of microglial cells by Aβ1-40 as in Example 1.
The effects of the benzenesulfonamide PLA2 inhibitor AN20606 and the selective cytosolic PLA2 inhibitor arachidonyl trifluoromethyl ketone (AN20579) were examined in cultured human cortical microglia for their selectivity for inhibiting microglia activation mediated by amyloid-βpeptide and lipopolysaccharides (LPS). LPS are a major constituent of the cell wall of gama-negative bacteria and are extensively used for generating inflammatory responses in cultured cells and in vivo.
Background: In an ELISA, binding on a coated surface is turned into a signal by an enzyme label.

Another assay concerns human cortical neurons. As to the kind of experiment: Aβ neurotoxicity in human cortical neurons (alamarBlue), 2 h pretreatment with inhibitor. The class given is cell-based. To be noted: Homo sapiens, Cortical neurone, 50 μM Aβ1-40, compound 390 nM to 100 μM, 2 h pretreatment and re-added with Aβ, 3 days, n=3. Here is the method: Cultures of human cortical or hippocampal neurons were prepared using a modification of the procedure described in P. Seubert et al. (1992), Nature 359:325-327. Cortical or hippocampal tissue was dissociated by incubation in a trypsin/EDTA solution (0.05% trypsin +0.53 mM EDTA in HBSS; Gibco) for 20 minutes at 37° C. The trypsin was then inactivated by resuspending the cells in serum-containing medium (MEM/FBS): Modified Eagle's Medium (MEM) containing 1% glucose, 1 mM sodium pyruvate, 1 mM glutamine, and supplemented with 10% fetal bovine serum (Gibco). Cells were then pelleted by centrifugation and resuspended in a chemically-defined medium (MEM/B27): MEM containing B27 supplement (Gibco) in place of FBS. Polyethyleneimine (PEI)-coated 6.4-mm (96-well) dishes were rinsed once with MEM/FBS, and then seeded at 0.75-1.25×10^5 cells per well in 0.1 ml MEM/B27. Cultures were maintained in a H2 O-saturated incubator with an atmosphere of 95% air/5% CO2 at 37° C. The culture medium was exchanged twice weekly.
Amyloid-β (Aβ) stock solutions were prepared as 1 mM stocks in sterile ddH2 O immediately prior to addition to cultures. Rat cortical neurons were exposed to Aβ by removing the culture medium and replacing it with DMEM/N2 or DMEM/B27 containing Aβ1-40. Human cortical neurons were exposed to Aβ by removing the culture medium and replacing it with MEM, MEM/N2, or MEM/B27 containing Aβ1-40. Cultures were maintained for 2-4 days before neuronal survival was quantified using alamarBlue™.
The alamarBlue™ assay incorporated a proprietary fluorometric/colorimetric metabolic indicator (Alamar Biosciences, Inc.). Viable cells convert alamarBlue™ from an oxidized (non-fluorescent, blue) form to a reduced (fluorescent, red) form. Assays were performed by replacing the culture media with a 10% alamarBlue™ solution in DMEM (rat cortical cultures) or MEM (human cortical cultures). Reduction of alamarBlue™ was determined spectrofluorometrically using a Millipore Cytofluor 2350 Scanner (excitation, […]; emission, 590 nm) and CytoCalc™ software (Millipore Corporation).
The effect of pretreating human cortical neuron cultures with the benzenesulfonamide PLA2 inhibitors and arachidonyl trifluoromethyl ketone prior to exposure to a neurotoxic concentration of Aβ1-40 was determined.
Human cortical neurons were treated with 50 μM Aβ1-40 and various inhibitors of PLA2. Compounds were added 2 hours prior to Aβ1-40 treatment at concentrations of 390 nM to 100 μM, and were then re-added at the time of Aβ1-40 treatment. Compounds were also added in an identical manner to neuronal cultures in the absence of Aβ1-40. Neuronal survival was determined after 3 days of treatment by alamarBlue®. IC50 is the dose of compound that inhibited Aβ-mediated neurotoxicity by 50%. […] Data represents the mean ± SD (n=3). ND, not detected at the concentration range used.

As a reminder, the IC50 is the concentration needed to halve the response being measured. For `CN(C(=O)/C=C/c1ccc(S(C)(=O)=O)cc1)c1ccc(S(=O)(=O)NC2CCCCCC2)cc1` [AN20606, N-cycloheptyl-4-[N-methyl-N-[(E)-3-(4-methylsulfonylphenyl)-2-propenoyl]amino]benzenesulfonamide], the “amount of TNF-α released into the medium (in words)” value in assay [1] (50 μM Aβ1-40, 1 day, compound 0, 5, 10, 20 μM, FIG. 2) is “marked and dose-dependent decrease”. In assay [1] (50 μM Aβ1-40, inhibitor 20 μM where present), the “TNF Released” value was 3.7 ± 1.4 pg/mL. Also, the “Aβ1-40-mediated TNFα release, selectivity versus LPS (in words)” value in assay [1] (Aβ1-40 versus LPS stimulation) is “selectively inhibited”. In assay [1] (Homo sapiens, Microglia, 50 μM Aβ1-40 + 20 μM inhibitor, read-out: TNF Released, percent in parentheses (relative to Aβ1-40 alone)), the activity at 20 µM is 4%. Besides, in the assay with human cortical neurons (72 h, read-out: Max Inh), the Emax was 89%. Besides, in the assay on human cortical neurons (ND = not detected at the concentration range used, read-out: IC50 (dose that inhibited Aβ-mediated neurotoxicity by 50%)), the 50% inhibitory concentration (IC50) was 3000 nM.

The values above are taken from patent publication US5707821A, “Identification of phospholipase A2 inhibitors in Aβ peptide-mediated neurodegenerative disease” (priority 1995, dated 1998).
